Test results reported in patent US7153855B2, “Pyrazolopyridinyl pyrimidine therapeutic compounds” (SmithKline Beecham Corporation, priority 2001, dated 2006).

Tested on: HSV-1
Assay: HSV-1 infection of Vero 76 cells, viral DNA detected by hybridization capture (chemiluminescence)
Format: cell-based
Conditions: Human alphaherpesvirus 1; HSV-1 in Vero 76 cells, MOI=0.001, compounds incubated 40–48 hours at 37° C.; read-out: IC50
Procedure, shortened: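 Vero 76 cells infected 45 min at 37° C with HSV-1 (MOI=0.001), seeded at 5×10^4 cells/well in 2% FBS medium with compounds, incubated 40–48 h, then lysed in 0.2 N NaOH/1% detergent. Viral DNA captured by UL13 plasmid, hybridized overnight at 42° C with digoxigenin-labeled UL15 probe, detected by anti-digoxigenin-HRP chemiluminescence.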

SMILES | IC50 [nM]
c1cc(NC2CC2)n2nc(-c3ccc(OCC4CC4)cc3)c(-c3ccnc(NC4CC4)n3)c2c1 [Example 72, N-Cyclopropyl-3-[2-(cyclopropylamino)-4-pyrimidinyl]-2-[4-(cyclopropylmethoxy)phenyl]pyrazolo[1,5-a]pyridin-7-amine] | 1400
Nc1nccc(-c2c(-c3ccc(O)cc3)nn3c(N4CCCC4)cccc23)n1 [Example 6, 4-[3-(2-Amino-4-pyrimidinyl)-7-(1-pyrrolidinyl)pyrazolo[1,5-a]pyridin-2-yl]phenol] | 5000
CCOC(=O)COc1ccc(-c2nn3c(NC4CCCC4)cccc3c2-c2ccnc(NC3CCCC3)n2)cc1 [Example 8, Ethyl (4-{7-(cyclopentylamino)-3-[2-(cyclopentylamino)-4-pyrimidinyl]-pyrazolo[1,5-a]pyridin-2-yl}phenoxy)acetate] | 3000
COc1ccc(-c2nn3c(N4CCOCC4)cccc3c2-c2ccnc(NC3CC3)n2)cc1 [Example 63, N-Cyclopropyl-4-[2-(4-methoxyphenyl)-7-(4-morpholinyl)pyrazolo[1,5-a]pyridin-3-yl]-2-pyrimidinamine] | 1200
c1cc(-c2cccs2)cc(-c2nn3c(NC4CCCC4)cccc3c2-c2ccnc(NC3CCCC3)n2)c1 [Example 33, N-Cyclopentyl-3-[2-(cyclopentylamino)-4-pyrimidinyl]-2-[3-(2-thienyl)-phenyl]pyrazolo[1,5-a]pyridin-7-amine] | 800
Nc1cc(-c2nn3c(NC4CCCC4)cccc3c2-c2ccnc(NC3CCCC3)n2)ccc1Cl [Example 44, 2-(3-Amino-4-chlorophenyl)-N-cyclopentyl-3-[2-(cyclopentylamino)-4-pyrimidinyl]pyrazolo[1,5-a]pyridin-7-amine] | 1800
Brc1cccc(-c2nn3c(NC4CCCC4)cccc3c2-c2ccnc(NC3CCCC3)n2)c1 [Example 25, 2-(3-Bromophenyl)-N-cyclopentyl-3-[2-(cyclopentylamino)-4-pyrimidinyl]pyrazolo[1,5-a]pyridin-7-amine] | 200
Oc1ccc(-c2nn3c(NC4CCCC4)cccc3c2-c2ccnc(NC3CC3)n2)cc1 [Example 68, 4-{7-(Cyclopentylamino)-3-[2-(cyclopropylamino)-4-pyrimidinyl]-pyrazolo[1,5-a]pyridin-2-yl}phenol] | 1200
Cc1cccc(-c2nn3c(NC4CCCC4)cccc3c2-c2nc(NC3CCCC3)nc(C)c2C)c1 [Example 48, N-cyclopentyl-3-[2-(cyclopentylamino)-5,6-dimethyl-4-pyrimidinyl]-2-(3-methylphenyl)pyrazolo[1,5-a]pyridin-7-amine] | > 40000
